Results published in PubChem BioAssay (NCI).
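Assay format: 96-well plates, 48-hour exposure. GI50 is the concentration that inhibits growth by half. TGI marks complete inhibition of growth.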

How the values were obtained:
Assay in all cases: NCI-60 cell line screen, 48 h; in the data active means GI50 below about 0.43 µM; inactive means the rest
M14 melanoma = tested on: M14 melanoma
RXF 393 renal = tested on: RXF 393 renal
NCI-H522 lung = tested on: NCI-H522 lung
SF-295 CNS = tested on: SF-295 CNS
HS 578T breast = tested on: HS 578T breast
HL-60(TB) leukemia = tested on: HL-60(TB) leukemia
HOP-92 NSCLC = tested on: HOP-92 NSCLC
OVCAR-3 ovarian = tested on: OVCAR-3 ovarian
CCRF-CEM leukemia = tested on: CCRF-CEM leukemia
NCI-H23 lung = tested on: NCI-H23 lung
SK-MEL-5 melanoma = tested on: SK-MEL-5 melanoma
MDA-MB-435 = tested on: MDA-MB-435
MDA-MB-231 breast = tested on: MDA-MB-231 breast
SNB-19 CNS = tested on: SNB-19 CNS
U251 CNS = tested on: U251 CNS
MCF7 breast = tested on: MCF7 breast
IGROV1 ovarian = tested on: IGROV1 ovarian
NCI-H460 lung = tested on: NCI-H460 lung
TK-10 renal = tested on: TK-10 renal
SN12C renal = tested on: SN12C renal
UACC-62 melanoma = tested on: UACC-62 melanoma
ACHN renal = tested on: ACHN renal
HCT-15 colon = tested on: HCT-15 colon
MALME-3M melanoma = tested on: MALME-3M melanoma
A498 renal = tested on: A498 renal
LOX IMVI melanoma = tested on: LOX IMVI melanoma
SNB-75 CNS = tested on: SNB-75 CNS
SF-539 CNS = tested on: SF-539 CNS
UACC-257 melanoma = tested on: UACC-257 melanoma
SR leukemia = tested on: SR leukemia
NCI/ADR-RES ovarian = tested on: NCI/ADR-RES ovarian
PC-3 prostate = tested on: PC-3 prostate
K-562 leukemia = tested on: K-562 leukemia
MOLT-4 leukemia = tested on: MOLT-4 leukemia
SF-268 CNS = tested on: SF-268 CNS
OVCAR-5 ovarian = tested on: OVCAR-5 ovarian
CAKI-1 renal = tested on: CAKI-1 renal
T-47D breast = tested on: T-47D breast
SW-620 colon = tested on: SW-620 colon
SK-OV-3 ovarian = tested on: SK-OV-3 ovarian
SK-MEL-2 melanoma = tested on: SK-MEL-2 melanoma
OVCAR-4 ovarian = tested on: OVCAR-4 ovarian
DU-145 prostate = tested on: DU-145 prostate
786-0 renal = tested on: 786-0 renal
HCC-2998 colon = tested on: HCC-2998 colon
HOP-62 NSCLC = tested on: HOP-62 NSCLC
OVCAR-8 ovarian = tested on: OVCAR-8 ovarian
KM12 colon = tested on: KM12 colon
UO-31 renal = tested on: UO-31 renal
HCT-116 colon = tested on: HCT-116 colon
COLO 205 colon = tested on: COLO 205 colon
SK-MEL-28 melanoma = tested on: SK-MEL-28 melanoma
NCI-H226 lung = tested on: NCI-H226 lung
A549 NSCLC = tested on: A549 NSCLC
RPMI-8226 leukemia = tested on: RPMI-8226 leukemia
HT29 colon = tested on: HT29 colon
BT-549 breast = tested on: BT-549 breast

FC(F)c1ncc(-c2ccc(C(F)(F)F)cc2)c(NC2CCCCCC2)n1
> 10 µM: TGI (M14 melanoma) | TGI (RXF 393 renal) | TGI (NCI-H522 lung) | TGI (SF-295 CNS) | TGI (HS 578T breast) | TGI (HL-60(TB) leukemia) | TGI (HOP-92 NSCLC) | TGI (OVCAR-3 ovarian) | TGI (CCRF-CEM leukemia) | TGI (NCI-H23 lung) | TGI (SK-MEL-5 melanoma) | TGI (MDA-MB-435) | TGI (MDA-MB-231 breast) | TGI (SNB-19 CNS) | TGI (U251 CNS) | TGI (MCF7 breast) | TGI (IGROV1 ovarian) | TGI (NCI-H460 lung) | TGI (TK-10 renal) | TGI (SN12C renal) | TGI (UACC-62 melanoma) | TGI (ACHN renal) | TGI (HCT-15 colon) | TGI (MALME-3M melanoma) | TGI (A498 renal) | TGI (LOX IMVI melanoma) | TGI (SNB-75 CNS) | TGI (SF-539 CNS) | TGI (UACC-257 melanoma) | TGI (SR leukemia) | TGI (NCI/ADR-RES ovarian) | TGI (PC-3 prostate) | TGI (K-562 leukemia) | TGI (MOLT-4 leukemia) | TGI (SF-268 CNS) | TGI (OVCAR-5 ovarian) | TGI (CAKI-1 renal) | TGI (T-47D breast) | TGI (SW-620 colon) | TGI (SK-OV-3 ovarian) | TGI (SK-MEL-2 melanoma) | TGI (OVCAR-4 ovarian) | TGI (DU-145 prostate) | TGI (786-0 renal) | TGI (HCC-2998 colon) | TGI (HOP-62 NSCLC) | TGI (OVCAR-8 ovarian) | TGI (KM12 colon) | TGI (UO-31 renal) | TGI (HCT-116 colon) | TGI (COLO 205 colon) | TGI (SK-MEL-28 melanoma) | TGI (NCI-H226 lung) | TGI (A549 NSCLC) | TGI (RPMI-8226 leukemia) | TGI (HT29 colon) | TGI (BT-549 breast)
inactive: GI50 (M14 melanoma) > 10 µM | GI50 (RXF 393 renal) > 10 µM | GI50 (NCI-H522 lung) > 10 µM | GI50 (SF-295 CNS) > 10 µM | GI50 (HS 578T breast) > 10 µM | GI50 (HL-60(TB) leukemia) > 10 µM | GI50 (HOP-92 NSCLC) > 10 µM | GI50 (OVCAR-3 ovarian) > 10 µM | GI50 (CCRF-CEM leukemia) > 10 µM | GI50 (NCI-H23 lung) > 10 µM | GI50 (SK-MEL-5 melanoma) > 10 µM | GI50 (MDA-MB-435) > 10 µM | GI50 (MDA-MB-231 breast) > 10 µM | GI50 (SNB-19 CNS) > 10 µM | GI50 (U251 CNS) > 10 µM | GI50 (MCF7 breast) > 10 µM | GI50 (IGROV1 ovarian) > 10 µM | GI50 (NCI-H460 lung) > 10 µM | GI50 (TK-10 renal) > 10 µM | GI50 (SN12C renal) > 10 µM | GI50 (UACC-62 melanoma) > 10 µM | GI50 (ACHN renal) > 10 µM | GI50 (HCT-15 colon) > 10 µM | GI50 (MALME-3M melanoma) > 10 µM | GI50 (A498 renal) > 10 µM | GI50 (LOX IMVI melanoma) > 10 µM | GI50 (SNB-75 CNS) > 10 µM | GI50 (SF-539 CNS) > 10 µM | GI50 (UACC-257 melanoma) > 10 µM | GI50 (SR leukemia) > 10 µM | GI50 (NCI/ADR-RES ovarian) > 10 µM | GI50 (PC-3 prostate) > 10 µM | GI50 (K-562 leukemia) > 10 µM | GI50 (MOLT-4 leukemia) > 10 µM | GI50 (SF-268 CNS) > 10 µM | GI50 (OVCAR-5 ovarian) > 10 µM | GI50 (CAKI-1 renal) > 10 µM | GI50 (T-47D breast) > 10 µM | GI50 (SW-620 colon) > 10 µM | GI50 (SK-OV-3 ovarian) > 10 µM | GI50 (SK-MEL-2 melanoma) > 10 µM | GI50 (OVCAR-4 ovarian) > 10 µM | GI50 (DU-145 prostate) > 10 µM | GI50 (786-0 renal) > 10 µM | GI50 (HCC-2998 colon) > 10 µM | GI50 (HOP-62 NSCLC) > 10 µM | GI50 (OVCAR-8 ovarian) > 10 µM | GI50 (KM12 colon) > 10 µM | GI50 (UO-31 renal) > 10 µM | GI50 (HCT-116 colon) > 10 µM | GI50 (COLO 205 colon) > 10 µM | GI50 (SK-MEL-28 melanoma) > 10 µM | GI50 (NCI-H226 lung) > 10 µM | GI50 (A549 NSCLC) > 10 µM | GI50 (RPMI-8226 leukemia) > 10 µM | GI50 (HT29 colon) > 10 µM | GI50 (BT-549 breast) > 10 µM
